Assay results as given in paper PMC7046635, “A combined experimental and modelling approach for the Weimberg pathway optimisation” (Nature Communications, 2020).

Experiments:
[1] = target: T1, α-Ketoglutarate semialdehyde dehydrogenase (KGSADH) (Caulobacter vibrioides, UniProt A0A0H3C801); test: biochemical; design: product inhibition constants from fits of rate equations to initial rate kinetics of purified enzyme; conditions: read-out: K estimate (mM), inhibition
T1 construct: gene xylA; full-length gene in pET vector, N-terminal His tag, E. coli expression, Ni-TED and size exclusion
T1 sequence (A0A0H3C801 1-478): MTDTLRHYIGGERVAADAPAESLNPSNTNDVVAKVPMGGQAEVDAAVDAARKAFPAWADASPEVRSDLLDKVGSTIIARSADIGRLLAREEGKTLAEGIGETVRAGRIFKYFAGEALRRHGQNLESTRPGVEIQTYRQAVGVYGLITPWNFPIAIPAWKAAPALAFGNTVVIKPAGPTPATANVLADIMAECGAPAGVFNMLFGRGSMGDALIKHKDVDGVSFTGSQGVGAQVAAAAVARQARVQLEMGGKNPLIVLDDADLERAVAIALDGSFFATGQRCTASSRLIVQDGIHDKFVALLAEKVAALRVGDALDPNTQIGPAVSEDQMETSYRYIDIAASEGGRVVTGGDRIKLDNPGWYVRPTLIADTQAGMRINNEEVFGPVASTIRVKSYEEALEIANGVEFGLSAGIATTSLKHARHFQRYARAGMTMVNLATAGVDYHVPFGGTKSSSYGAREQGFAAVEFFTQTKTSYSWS
Protocol: (§1) All reactions completed the substrate conversion in roughly 90 min, which is in agreement with model simulations that include product inhibition (Fig. 2c). However, a much slower conversion was observed than predicted, based on initial rate kinetics excluding product inhibition (Supplementary Note 1 and Supplementary Figs. 9–11). […] For XLA and KDXD, the inhibition constants for D-xylonate and KGSA, respectively, had to be fitted based on the conversion data, as these enzymes are analysed in coupled enzyme assays. The progress curves after single enzyme additions and the required model adjustments are shown and discussed in Supplementary Note 1, all enzyme kinetic parameters are shown in Supplementary Tables 3–7. […] As a final step in model construction, the one-pot cascade model was established. The results of the sequential pathway reconstruction were used to define the ‘reference state’ for the one-pot cascade conversion of D-xylose to α-[compound left out] (Supplementary Note 1). For this, we added the five enzymes together, using amounts close to those used in the sequential experiment (2.5 μg ml^−1 XDH, 0.8 μg ml^−1 XLA, 8.67 μg ml^−1 XAD, 0.5 μg ml^−1 KDXD and 10 μg ml^−1 KGSADH). The conversion of 5 mM D-xylose via the pathway intermediates to α-[compound left out] was followed using NMR (Fig. 3a). The model based on the isolated reaction kinetics predicted the first part of the pathway accurately, i.e., D-xylose oxidation, lactone cleavage and D-xylonate dehydration. […] S2 enzyme (Supplementary Table 5), measured using an off-line colorimetric assay. […] Product inhibition for the individual metabolites and combination of metabolites was determined in initial rate experiments in a linked KGSADH assay (Supplementary Fig. 7), while for α-[compound left out] semialdehyde the binding constant was estimated in a conversion assay (Supplementary Fig. 10b).

[2] = target: T2, D-xylonate dehydratase (XAD) (Caulobacter vibrioides, UniProt A0A0H3C6H6); test: biochemical; design: product inhibition constants from fits of rate equations to initial rate kinetics of purified enzyme; conditions: read-out: K estimate (mM), inhibition
T2 construct: gene xylD; full-length gene in pET vector, N-terminal His tag, E. coli expression
T2 sequence (A0A0H3C6H6 1-591): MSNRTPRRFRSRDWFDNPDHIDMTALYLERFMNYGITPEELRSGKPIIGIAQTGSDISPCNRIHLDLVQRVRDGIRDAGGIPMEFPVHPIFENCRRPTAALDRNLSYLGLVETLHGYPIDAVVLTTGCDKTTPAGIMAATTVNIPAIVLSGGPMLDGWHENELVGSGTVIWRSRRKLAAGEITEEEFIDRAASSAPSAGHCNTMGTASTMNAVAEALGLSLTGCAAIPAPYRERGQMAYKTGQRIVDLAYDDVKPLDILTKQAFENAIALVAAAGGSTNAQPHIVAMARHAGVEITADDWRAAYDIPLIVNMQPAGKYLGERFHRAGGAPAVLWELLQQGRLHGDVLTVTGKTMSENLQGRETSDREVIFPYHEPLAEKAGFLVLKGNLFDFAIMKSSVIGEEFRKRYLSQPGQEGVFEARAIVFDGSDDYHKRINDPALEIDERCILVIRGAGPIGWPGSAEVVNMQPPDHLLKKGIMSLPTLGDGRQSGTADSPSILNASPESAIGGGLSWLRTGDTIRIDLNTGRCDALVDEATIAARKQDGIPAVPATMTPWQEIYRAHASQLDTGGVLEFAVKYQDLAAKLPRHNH
Protocol: as §1

[3] = target: T3, D-xylonate dehydratase (XAD) (Caulobacter vibrioides, UniProt Q9A9Z2); test: discontinuous thiobarbituric acid assay; assay type: biochemical; conditions: 100 mM HEPES/NaOH pH 7.5, 37 °C, enzyme stored with 17 µmol MnCl2 per mg
T3 construct: gene xylD; full-length gene in pET vector, N-terminal His tag, E. coli expression, Ni-TED and size exclusion, stored with MnCl2

[4] = target: T4, D-xylose dehydrogenase (XDH) (Caulobacter vibrioides, UniProt B8H1Z0); test: biochemical; design: product inhibition constants from fits of rate equations to initial rate kinetics of purified enzyme; conditions: read-out: K estimate (mM), inhibition
T4 construct: gene xylB; full-length gene in pET vector, N-terminal His tag, E. coli expression, Ni-TED and size exclusion
T4 sequence (B8H1Z0 1-248): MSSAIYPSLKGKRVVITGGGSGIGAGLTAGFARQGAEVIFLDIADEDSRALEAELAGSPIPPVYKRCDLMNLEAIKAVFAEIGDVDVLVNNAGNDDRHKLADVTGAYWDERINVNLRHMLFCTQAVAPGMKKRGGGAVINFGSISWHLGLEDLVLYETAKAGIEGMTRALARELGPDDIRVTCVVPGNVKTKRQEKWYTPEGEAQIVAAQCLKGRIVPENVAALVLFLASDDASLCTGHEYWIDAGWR

T3 sequence (Q9A9Z2 whole entry): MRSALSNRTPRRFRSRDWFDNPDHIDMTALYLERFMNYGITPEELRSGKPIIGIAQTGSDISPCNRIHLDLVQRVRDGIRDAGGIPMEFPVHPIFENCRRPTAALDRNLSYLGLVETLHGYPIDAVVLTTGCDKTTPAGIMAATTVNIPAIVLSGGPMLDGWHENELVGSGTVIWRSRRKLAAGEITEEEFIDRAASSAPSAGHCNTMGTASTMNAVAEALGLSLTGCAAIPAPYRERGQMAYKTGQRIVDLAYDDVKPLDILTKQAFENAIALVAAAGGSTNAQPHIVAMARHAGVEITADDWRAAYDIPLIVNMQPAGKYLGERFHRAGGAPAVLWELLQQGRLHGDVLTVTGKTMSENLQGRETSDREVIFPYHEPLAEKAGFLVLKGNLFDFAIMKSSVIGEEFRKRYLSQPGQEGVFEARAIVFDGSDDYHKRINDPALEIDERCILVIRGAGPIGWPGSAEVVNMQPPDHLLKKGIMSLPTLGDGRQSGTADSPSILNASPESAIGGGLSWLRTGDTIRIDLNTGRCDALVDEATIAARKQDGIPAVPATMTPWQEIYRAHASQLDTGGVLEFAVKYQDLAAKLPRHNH

Row | Structure (SMILES) | Ki [1] | Ki [4] | also measured
1 | O=C(O)C(=O)C[C@H](O)CO [2-keto-3-deoxy-D-xylonate] | 0.021 mM | – | Ki [2]: 0.86 mM
2 | O=C(O)[C@H](O)[C@@H](O)[C@H](O)CO [D-xylonate] | – | – | Km [3]: 790 µM
3 | O=C1O[C@H](CO)[C@H](O)[C@H]1O [D-xylono-1,4-lactone] | – | 0.54 mM | –
4 | O=C(O)CCC(=O)C(=O)O [KG] | 0.28 mM | – | –
5 | NC(=O)C1=CN([C@@H]2O[C@H](COP(=O)(O)OP(=O)(O)OC[C@H]3O[C@@H](n4cnc5c(N)ncnc54)[C@H](O)[C@@H]3O)[C@@H](O)[C@H]2O)C=CC1 [NADH] | – | 0.03 mM | –
